The target of test [1] is T1, recombinant human Lp-PLA2 (Homo sapiens, UniProt Q13093).
T1 sequence (Q13093 22-441): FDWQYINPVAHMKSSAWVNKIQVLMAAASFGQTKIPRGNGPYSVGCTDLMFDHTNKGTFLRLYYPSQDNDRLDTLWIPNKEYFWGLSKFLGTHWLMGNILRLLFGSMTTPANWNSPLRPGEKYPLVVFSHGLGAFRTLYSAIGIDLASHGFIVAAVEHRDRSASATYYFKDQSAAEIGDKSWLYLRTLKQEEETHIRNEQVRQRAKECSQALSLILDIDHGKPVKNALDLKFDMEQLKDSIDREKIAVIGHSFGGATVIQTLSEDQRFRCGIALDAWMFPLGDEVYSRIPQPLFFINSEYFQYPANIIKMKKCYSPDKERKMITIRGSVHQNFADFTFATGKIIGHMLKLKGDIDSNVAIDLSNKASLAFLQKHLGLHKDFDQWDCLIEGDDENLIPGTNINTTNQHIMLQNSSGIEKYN
As to the kind of experiment: Recombinant human Lp-PLA2 assay (rhLp-PLA2, PED6 assay). It counts as biochemical. In a few lines:
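Compounds were preincubated 30 min with 4 nM […] rhLp-PLA2 in 50 mM HEPES pH 7.4, 150 mM NaCl, 1 mM CHAPS, then PED6 substrate […] was added for 20 min at room temperature in the dark. Fluorescence was read at ex 480/em 540, and pIC50 was fitted from 1:3 serial dilutions.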

For another test, the target named is T2, Lp-PLA2 in human plasma (Homo sapiens, UniProt Q13093).
T2 construct: from tissue; host or cells: pooled human plasma
T2 sequence (Q13093 22-441): T1 sequence (Q13093 22-441)
In words: Lp-PLA2 human plasma assay (Thio-PAF assay). It counts as biochemical. The settings on record: pooled human plasma; lower bounds; read-out: pIC50 values in the thio-PAF assay (converted). In a few lines:
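Pooled human plasma preincubated 30 min with compounds, then given 2-thio-PAF substrate with CPM and NEM in 50 mM HEPES pH 7.4, 150 mM NaCl, 1 mM CHAPS. Reaction quenched after 2 min with TFA and read by fluorescence (ex 380/em 485) after 40 min at room temperature; pIC50 from curve fit.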

The mark [2] stands for this setting: lower bounds, read-out: pIC50 values in the PED6 assay (converted).
Where [3] appears, read: read-out: rhLp-PLA2 (PED6 assay) (pIC50) (converted).

The values that follow come from patent US9051325B2, “Bicyclic [5,6] imidazo pyrimodone compounds for use in the treatment of diseases or conditions mediated by Lp-PLA2” (GlaxoSmithKline Intellectual Property Development Limited, priority 2013, dated 2015).

Like-named read-outs stand apart in the source and are kept apart here.

For `CN1c2cc(OCc3ccc(Oc4ccnc(Cl)c4)c(F)c3)nc(=O)n2CC1(C)C` [Example E65, 7-((4-((2-chloropyridin-4-yl)oxy)-3-fluorobenzyl)oxy)-1,2,2-trimethyl-2,3-dihydroimidazo[1,2-c]pyrimidin-5(1H)-one], the IC50 in test [1] (setting [2]) is ≤ 1 nM; at Lp-PLA2 in human plasma, ≤ 100 nM.
On to `CC(C)N1c2cc(OCc3cc(F)cc(F)c3)nc(=O)n2CC1(C)C` [Example E96, 7-((3,5-difluorobenzyl)oxy)-1-isopropyl-2,2-dimethyl-2,3-dihydroimidazo[1,2-c]pyrimidin-5(1H)-one], for which the results for the IC50 (in test [1] (setting [2]); in test [1] (setting [3]); at Lp-PLA2 in human plasma) were ≤ 1 nM, 0.316 nM and ≤ 100 nM, respectively.
Taken in the same sequence, the figures for `CN1c2cc(OCc3ccc(Oc4ccnc(C(F)(F)F)c4)c(F)c3)nc(=O)n2CC1(C)C` [Example E59, 7-((3-fluoro-4-((2-(trifluoromethyl)pyridin-4-yl)oxy)benzyl)oxy)-1,2,2-trimethyl-2,3-dihydroimidazo[1,2-c]pyrimidin-5(1H)-one] were ≤ 1 nM, 0.0398 nM and ≤ 100 nM.
As for `[2H]C([2H])(Oc1cc2n(c(=O)n1)CC(C)(C)N2C(C)C)c1cccc(F)c1F` [Example E105, 7-(dideutero(2,3-difluorobenzyl)oxy)-1-isopropyl-2,2-dimethyl-2,3-dihydroimidazo-[1,2-c]pyrimidin-5(1H)-one], the IC50 is ≤ 1 nM in test [1] (setting [2]), 0.631 nM in test [1] (setting [3]) and ≤ 100 nM on Lp-PLA2 in human plasma.
In the case of `CC1(C)Cn2c(cc(OCc3ccc(Oc4cnc(C(F)(F)F)nc4)c(F)c3)nc2=O)N1` [Example E101, 7-((3-fluoro-4-((2-(trifluoromethyl)pyrimidin-5-yl)oxy)benzyl)oxy)-2,2-dimethyl-2,3-dihydroimidazo[1,2-c]pyrimidin-5(1H)-one], the IC50 in test [1] (setting [2]) was ≤ 1 nM; at Lp-PLA2 in human plasma, ≤ 100 nM.
Regarding `C[C@H]1Cn2c(cc(OCc3cc(F)c(Oc4cncc(C(F)(F)F)c4)c(F)c3)nc2=O)N1C` [Example E56, (S)-7-((3,5-difluoro-4-((5-(trifluoromethyl)pyridin-3-yl)oxy)benzyl)oxy)-1,2-dimethyl-2,3-dihydroimidazo[1,2-c]pyrimidin-5(1H)-one], the values for the IC50 (in test [1] (setting [2]); in test [1] (setting [3]); on Lp-PLA2 in human plasma) were ≤ 1 nM, 0.1 nM and ≤ 100 nM, respectively.
In the case of `[2H]C([2H])(Oc1cc2n(c(=O)n1)CC(C)(C)N2C([2H])([2H])[2H])c1cccc(F)c1F` [Example E15, 7-(dideutero(2,3-difluorobenzyl)oxy)-1-trideuteromethyl-2,2-dimethyl-2,3-dihydroimidazo[1,2-c]pyrimidin-5(1H)-one], the IC50 is ≤ 10 nM in test [1] (setting [2]) and ≤ 100 nM on Lp-PLA2 in human plasma.
`CN1c2cc(OCc3ccc(F)c(F)c3)nc(=O)n2CC1(C)C` [Example E122, 7-((3,4-difluorobenzyl)oxy)-1,2,2-trimethyl-2-dihydroimidazo[1,2-c]pyrimidin-5(1H)-one]: the values for the IC50 (in test [1] (setting [2]); on Lp-PLA2 in human plasma) were ≤ 1 nM and ≤ 100 nM, respectively.
Taken in the same sequence, the figures for `C[C@H]1Cn2c(cc(OCc3ccc(Oc4ccnc(C(F)(F)F)c4)c(F)c3)nc2=O)N1` [Example E78, (S)-7-((3-fluoro-4-((2-(trifluoromethyl)pyridin-4-yl)oxy)benzyl)oxy)-2-methyl-2,3-dihydroimidazo[1,2-c]pyrimidin-5(1H)-one] were ≤ 1 nM and ≤ 100 nM.
Taken in the same sequence, the figures for `CN1c2cc(OCc3cc(F)c(F)c(F)c3)nc(=O)n2CC1(C)C` [Example E110, 1,2,2-trimethyl-7-((3,4,5-trifluorobenzyl)oxy)-2,3-dihydroimidazo[1,2-c]pyrimidin-5(1H)-one] were ≤ 10 nM and ≤ 100 nM.
Taken in the same sequence, the figures for `C[C@H]1Cn2c(cc(OCc3ccc(Oc4ccc(F)c(F)c4)c(C#N)c3)nc2=O)N1C` [Example E88, (S)-2-(3,4-difluorophenoxy)-5-(((1,2-dimethyl-5-oxo-1,2,3,5-tetrahydroimidazo[1,2-c]pyrimidin-7-yl)oxy)methyl)benzonitrile] were ≤ 1 nM and ≤ 100 nM.
As for `CC1(C)Cn2c(cc(OCc3cc(F)c(Oc4cnc(C(F)(F)F)nc4)c(F)c3)nc2=O)N1` [Example E100, 7-((3,5-difluoro-4-((2-(trifluoromethyl)pyrimidin-5-yl)oxy)benzyl)oxy)-2,2-dimethyl-2,3-dihydroimidazo[1,2-c]pyrimidin-5(1H)-one], the figures for the IC50 (in test [1] (setting [2]); at Lp-PLA2 in human plasma) were ≤ 1 nM and ≤ 100 nM, respectively.
`CC(C)N1c2cc(OCc3cccc(F)c3F)nc(=O)n2CC1(C)C` [Example E46, 7-((2,3-difluorobenzyl)oxy)-1-isopropyl-2,2-dimethyl-2,3-dihydroimidazo[1,2-c]pyrimidin5(1H)-one]: the results for the IC50 (in test [1] (setting [2]); in test [1] (setting [3]); at Lp-PLA2 in human plasma) were ≤ 10 nM, 3.98 nM and ≤ 100 nM, respectively.
For `CN1c2cc(OCc3cc(F)c(Oc4ccnc(C(F)(F)F)c4)c(F)c3)nc(=O)n2CC1(C)C` [Example E25, 7-((3,5-difluoro-4-((2-(trifluoromethyl)pyridin-4-yl)oxy)benzyl)oxy)-1,2,2-trimethyl-2,3-dihydroimidazo[1,2-c]pyrimidin-(1H)-one], the values for the IC50 (in test [1] (setting [2]); in test [1] (setting [3]); on Lp-PLA2 in human plasma) were ≤ 1 nM, 0.0794 nM and ≤ 100 nM, respectively.
Regarding `CN1c2cc(OCc3cccc(C#N)c3)nc(=O)n2CC1(C)C` [Example E124, 3-(((1,2,2-trimethyl-5-oxo-1,2,3,5-tetrahydroimidazo[1,2-c]pyrimidin-7-yl)oxy)methyl)benzonitrile], the IC50 in test [1] (setting [2]) was ≤ 1 nM; on Lp-PLA2 in human plasma it was ≤ 100 nM.
Turning to `CN1c2cc(OCc3ccc(Oc4cncc(Cl)c4)c(F)c3)nc(=O)n2CC1(C)C` [Example E63, 7-((4-((5-chloropyridin-3-yl)oxy)-3-fluorobenzyl)oxy)-1,2,2-trimethyl-2,3-dihydroimidazo[1,2-c]pyrimidin-5(1H)-one], the IC50 in test [1] (setting [2]) is ≤ 1 nM; in test [1] (setting [3]), 0.1 nM; at Lp-PLA2 in human plasma, ≤ 100 nM.
As to `CN1c2cc(OCCc3cccs3)nc(=O)n2CC1(C)C` [Example E8, 1,2,2-trimethyl-7-(2-(thiophen-2-yl)ethoxy)-2,3-dihydroimidazo[1,2-c]pyrimidin-5(1H)-one], the figures for the IC50 (in test [1] (setting [2]); at Lp-PLA2 in human plasma) were ≤ 10 nM and ≤ 100 nM, respectively.
Take `CN1c2cc(OCc3ccc(Oc4cnc(C(F)(F)F)nc4)c(F)c3)nc(=O)n2CC1(C)C` [Example E43, 7-((3-fluoro-4-((2-(trifluoromethyl)pyrimidin-5-yl)oxy)benzyl)oxy)-1,2,2-trimethyl-2,3-dihydroimidazo[1,2-c]pyrimidin-5(1H)-one]: the results for the IC50 (in test [1] (setting [2]); in test [1] (setting [3]); on Lp-PLA2 in human plasma) were ≤ 1 nM, 0.0501 nM and ≤ 100 nM, respectively.
As to `CN1c2cc(OCc3ccc(Oc4ccc(C(F)(F)F)nc4)c(F)c3)nc(=O)n2CC1(C)C` [Example E112, 7-((3-fluoro-4-((6-(trifluoromethyl)pyridin-3-yl)oxy)benzyl)oxy)-1,2,2-trimethyl-2,3-dihydroimidazo[1,2-c]pyrimidin-5(1H)-one], the IC50 in test [1] (setting [2]) is ≤ 1 nM; on Lp-PLA2 in human plasma, ≤ 100 nM.
Consider `CC1(C)Cn2c(cc(OCc3ccc(Oc4ccc(Cl)nc4)c(F)c3)nc2=O)N1` [Example E44, 7-((4-((6-chloropyridin-3-yl)oxy)-3-fluorobenzyl)oxy)-2,2-dimethyl-2,3-dihydroimidazo[1,2-c]pyrimidin-5(1H)-one], for which the figures for the IC50 (in test [1] (setting [2]); at Lp-PLA2 in human plasma) were ≤ 1 nM and ≤ 100 nM, respectively.
Turning to `CN1c2cc(OCc3cc(F)c(Oc4ccc(C(F)(F)F)nc4)c(F)c3)nc(=O)n2CC1(C)C` [Example E60, 7-((3,5-difluoro-4-((6-(trifluoromethyl)pyridin-3-yl)oxy)benzyl)oxy)-1,2,2-trimethyl-2,3-dihydroimidazo[1,2-c]pyrimidin-5(1H)-one], the IC50 is ≤ 1 nM in test [1] (setting [2]), 0.0398 nM in test [1] (setting [3]) and ≤ 100 nM at Lp-PLA2 in human plasma.
Take `CC1Cn2c(cc(OCc3ccc(Oc4ccc(C#N)c(C(F)(F)F)c4)c(F)c3)nc2=O)N1C` (stereo not drawn) [Example E3, 4-(4-(((1,2-dimethyl-5-oxo-1,2,3,5-tetrahydroimidazo[1,2-c]pyrimidin-7-yl)oxy)methyl)-2-fluorophenoxy)-2-(trifluoromethyl)benzonitrile]: the figures for the IC50 (in test [1] (setting [2]); at Lp-PLA2 in human plasma) were ≤ 1 nM and ≤ 100 nM, respectively.
Taken in the same sequence, the figures for `CC1(C)Cn2c(cc(OCc3cc(F)c(Oc4ccc(F)nc4)c(F)c3)nc2=O)N1` [Example E134, 7-((3,5-difluoro-4-((6-fluoropyridin-3-yl)oxy)benzyl)oxy)-2,2-dimethyl-2,3-dihydroimidazo[1,2-c]pyrimidin-5(1H)-one] were ≤ 1 nM and ≤ 100 nM.
Taken in the same sequence, the figures for `CC1Cn2c(cc(OCc3ccc(Oc4cccc(C(F)(F)F)c4)c(C#N)c3)nc2=O)N1C` (stereo not drawn) [Example E71, 5-(((1,2-dimethyl-5-oxo-1,2,3,5-tetrahydroimidazo[1,2-c]pyrimidin-7-yl)oxy)methyl)-2-(3-(trifluoromethyl)phenoxy)benzonitrile] were ≤ 1 nM and ≤ 100 nM.
